# Where two headings read alike, the source gives them in different places.
# Key:
# [1] = Plasma pharmacokinetics of oral sorafenib in woodchucks (LC-MS/MS, noncompartmental analysis); type: in vivo, woodchuck (Marmota monax); details: for AUC / Cmax / Tmax: plasma, po; for AUC / Cmax / Tmax / Cmax/D, Geo Mean (%CV): woodchuck plasma; for Cmax: read-out: Cmax, Geo Mean (%CV); for Tmax: read-out: Tmax, Geo Mean (%CV)
# Description: Woodchuck plasma study samples were analyzed for sorafenib with an LC-MS/MS assay using authentic standards of sorafenib and the internal standard (IS), d3-sorafenib, both obtained from Toronto Research Chemicals (Toronto, ON, Canada). Study samples were quantitated using calibration and quality control (QC) samples prepared by spiking sorafenib into sodium heparinized human plasma (Bioreclamation, LLC, Westbury, NY, USA). The woodchuck plasma study samples were extracted using a Quadra 4 SPE Automated Liquid Handling System (Tomtec Inc., Hamden, CT, USA) by mixing a 50 µL aliquot of a calibrator, QC, plasma blank, or study sample with 500 µL of ice cold acetonitrile containing the IS for the LC-MS/MS. LC-MS/MS analysis was performed using a Finnigan Surveyor MS Pump Plus and Thermo Pal Autosampler System interfaced with a TSQ Quantum Ultra Mass Spectrometer, all obtained from Thermo Fisher Scientific (Waltham, MA, USA). A noncompartmental pharmacokinetic analysis (NCA) was performed on individual concentration-time data using a linear trapezoidal, linear/log interpolation calculation method with uniform weighting. The software program utilized for this analysis was Phoenix 64 WinNonlin Version 6.3 (Pharsight Corp., St. Louis, MO, USA). Study sample (n = 9) concentrations that were above the lower limit of quantitation (LLOQ) of the assay (62.5 ng/mL) following dose administration (Day 1: pre-dose and 1, 3, 5, 7 and 24 h; Day 19: pre-dose and 1, 3, 5, and 7 h) were used in the NCA.
# All WHV carrier woodchucks were randomly divided into three groups such as placebo, low dose (2.5 mg/kg/day), and high dose (5.0 mg/kg/day) groups (n = 5 animals/group) in a long-term efficacy study based on clinical and preclinical studies. Also, a compartmental pharmacokinetic (PK) model was used to select the two lowest doses that can achieve exposure sufficient to inhibit pharmacodynamic targets. Experimental woodchucks were treated with placebo, 2.5 mg/kg, or 5.0 mg/kg sorafenib once daily with a 5 days on and 2 days off schedule. Animals were dosed orally until tumor development. Another experiment was performed with the low (2.5 mg/kg/day) and high (5.0 mg/kg/day) dose groups (n = 3 animals/group) to see the efficacy of short-term (90 days treatment) usage of sorafenib. The primary endpoint of the in vivo study was disease free survival (DFS), and DFS was measured from the date of randomization until the date of any liver tumor detection. The secondary endpoint was tumor size over 2 cm, which was measured from the date of first tumor detection. All experimental protocols were approved by IACUC.
# [2] = test system: NFAT1; test: NFAT1 nuclear translocation in T cells by imaging flow cytometry (similarity score); type: cell-based, human; details: for nuclear translocation of NFAT1: non-stimulated CD8+ T cells
# Description: PBMCs were allowed to ‘recover’ in AIM-V medium (Thermo Fisher Scientific) at 37 °C, 5% CO2 in a humidified atmosphere overnight. 2 × 10^6 cells were treated with 0–10 µM sorafenib for the durations specified in the results section. If the experimental conditions required T cell stimulation, samples were co-treated (stimulated) with 1 µg/mL anti-CD3 and 1 µg/mL anti-CD28 for 2 h. Following treatment, PBMCs were placed on ice to stop drug action and immunophenotyped for CD4, CD8, CD25, and PD-1 (CD279). NFAT1 was detected by indirect labeling. Antibodies were diluted in permeabilization wash buffer (PWB) consisting of 0.1% Triton-X-100 in FCM Buffer (1× phosphate buffered saline (PBS) + 0.5%BSA). The primary Rabbit polyclonal NFAT1 antibody was diluted 1:50 in PWB. Following this, 1:200 dilution of secondary AF647 conjugated F(ab’)2 fragment donkey anti rabbit IgG antibody (Jackson ImmunoResearch Laboratories Inc., West Grove, PA, USA) was added. Just prior to data acquisition on the ImageStream, DAPI was added to all samples (0.5 µg/mL final concentration), to stain the nucleus.
# Imaging flow cytometry acquisition, compensation, and analysis was performed on an imaging flow cytometer (ImagestreamX Mk-II; Amnis, part of MilliporeSigma, Seattle, WA, USA) as described previously. Following compensation for spectral overlap, image analysis was performed with IDEAS® software (Amnis, Seattle, WA, USA). To assess nuclear NFAT1 translocation, the corresponding nuclear image and NFAT1 image of each cell was compared and a Similarity Score (SS) was assigned for individual cells using published methods (Figure S3).
# [3] = test system: human T cells; test: One-way mixed lymphocyte reaction (MLR), human T cells, CFSE; type: cell-based; details: high dose (10 µM), 96 h
# Description: Flow cytometry acquisition and compensation was performed on a LSR Fortessa (BD Biosciences, San Jose, CA, USA). Analysis of listmode data was performed using Winlist 8.0 (Verity Software House, Inc., Topsham, ME, USA). Briefly, the viable responder lymphocytes were hierarchically gated for single, low side scatter, viable cells with absent CD45 labeling. The percentage of proliferating cells was determined based on CFSE dye dilution compared to the CFSE labeling intensity from the non-proliferating MLR negative control sample. The full list of antibodies and reagents used in assays is available in Table S1.
# Mixed lymphocyte reactions were performed in human (human vs. human, Figure 1E) and woodchucks (woodchuck vs. human, Figure 1F). 10 mL peripheral blood from healthy donors and 3 mL woodchuck peripheral blood isolated. Stimulator cells (human cells for both assays) were irradiated at 40 Gy in a Mark I Cesium-137 irradiator for 20 min. Following irradiation, cells were stained for CD45-APC (BD Biosciences, San Jose, CA, USA). Responder cells (non-irradiated human or woodchuck cells) were labeled with CFSE (Thermo Fisher Scientific, Eugene, OR, USA). Target and responder cells were placed in a round bottom 96 well polypropylene plate at a 2:1 ratio in the presence of 0–10 µM sorafenib and incubated at 37 °C for 96 h. […]
# [4] = 2.5 mg/kg, oral 2.5 mg/kg, Day 1
# [5] = 2.5 mg/kg, oral 2.5 mg/kg, Day 19
# [6] = 5 mg/kg, oral 5.0 mg/kg, Day 19
smiles,measurement,setting,value
"CNC(=O)c1cc(Oc2ccc(NC(=O)Nc3ccc(Cl)c(C(F)(F)F)c3)cc2)ccn1 [sorafenib, Sorafenib]",Cmax/D of high dose group relative to low dose group,"[1]; 5.0 vs 2.5 mg/kg, Day 1",~ 8 times
same,Cmax/D of high dose group compared with low dose group,"[1]; 5.0 vs 2.5 mg/kg, Day 19",the same
same,AUC,"[1]; 2.5 mg/kg, oral 2.5 mg/kg, Day 1, read-out: AUC1–7 h, Geo Mean (%CV)",588 ng·h/mL
same,AUC,"[1]; 2.5 mg/kg, oral 2.5 mg/kg, Day 1, read-out: AUCAll, Geo Mean (%CV)",2600 ng·h/mL
same,Cmax,[1]; [4],136 ng/mL
same,Tmax,[1]; [4],5.92 h
same,AUC,"[1]; 2.5 mg/kg, oral 2.5 mg/kg, Day 19, read-out: AUC1–7 h, Geo Mean (%CV)",26800 ng·h/mL
same,AUC,"[1]; 2.5 mg/kg, oral 2.5 mg/kg, Day 19, read-out: AUCAll, Geo Mean (%CV)",30300 ng·h/mL
same,Cmax,[1]; [5],4970 ng/mL
same,Tmax,[1]; [5],4.22 h
same,AUC,"[1]; 5 mg/kg, oral 5.0 mg/kg, Day 1, read-out: AUC1–7 h, Geo Mean (%CV)",5960 ng·h/mL
same,AUC,"[1]; 5 mg/kg, oral 5.0 mg/kg, Day 1, read-out: AUCAll, Geo Mean (%CV)",21000 ng·h/mL
same,Cmax,"[1]; 5 mg/kg, oral 5.0 mg/kg, Day 1",1170 ng/mL
same,Tmax,"[1]; 5 mg/kg, oral 5.0 mg/kg, Day 1",3.98 h
same,AUC,"[1]; 5 mg/kg, oral 5.0 mg/kg, Day 19, read-out: AUC1–7 h, Geo Mean (%CV)",39100 ng·h/mL
same,Cmax,[1]; [6],7380 ng/mL
same,Tmax,[1]; [6],3.98 h
same,"Cmax/D, Geo Mean (%CV)","[1]; oral 2.5 mg/kg, Day 1","2, 54.4 (3.41) (ng/mL)/(mg/kg)"
same,"Cmax/D, Geo Mean (%CV)","[1]; oral 2.5 mg/kg, Day 19","3, 1990 (19.8) (ng/mL)/(mg/kg)"
same,"Cmax/D, Geo Mean (%CV)","[1]; oral 5.0 mg/kg, Day 1","3, 433 (75.8) (ng/mL)/(mg/kg)"
same,"Cmax/D, Geo Mean (%CV)","[1]; oral 5.0 mg/kg, Day 19","3, 2000 (54.5) (ng/mL)/(mg/kg)"
same,nuclear translocation of NFAT1,"[2]; 10 µM, 1 h exposure",no significant increase
same,nuclear translocation of NFAT1,"[2]; 10 µM, 4 h exposure",most significant increase
same,effect on PMA/ionomycin-induced T cell stimulation (NFAT1),"[2]; 10 µM, PMA/ionomycin stimulation, lesser extent than CD3/CD28",inhibitory effect
same,baseline activity of NFAT1 in T cells,"[2]; 10 µM, absence of CD3/CD28 stimulation",significantly increased
same,anti-CD3/CD28-induced NFAT1 activity,"[2]; 10 µM, presence of CD3/CD28 stimulation",significantly inhibited
same,NFAT1 activation in PD-1+ cells,"[2]; high dose (10 µM), PD-1+ T cells",increased
same,NFAT1 activation,"[2]; lower doses of sorafenib, absence of exogenous stimulatory factors",not observed
same,MLR response (T cell proliferation),[3],significant decrease

# From PMC6562672, “Dose-Dependent Sorafenib-Induced Immunosuppression Is Associated with Aberrant NFAT Activation and Expression of PD-1 in T Cells” (Cancers, 2019)
